From patent US8952024B2, “Herbicidal pyrimidone derivatives” (E I du Pont de Nemours and Company, priority 2009, dated 2015)

Legend:
Experiment in all cases: Test B pre-/postemergence plant response
Format in all cases: in vivo
[1] = tested on: yellow nutsedge (Cyperus esculentus)
Summary of the method: (§1)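 Visual injury, 0–100 scale (100 = complete control), rated against controls after 13 to 15 days in greenhouse. Pre-emergence: seeds in loam/sand soil, treated at planting. Post-emergence: 1- to 4-leaf plants (2 to 18 cm) in peat/vermiculite medium. Compounds formulated in non-phytotoxic solvent with surfactant.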

[2] = tested on: wheat (Triticum aestivum)
Summary of the method: as §1

[3] = tested on: woolly cupgrass (Eriochloa villosa)
Summary of the method: as §1

[4] = tested on: ragweed (common ragweed, Ambrosia elatior)
Summary of the method: as §1

[5] = tested on: goosegrass (Eleusine indica)
Summary of the method: as §1

[6] = tested on: bermudagrass (Cynodon dactylon)
Summary of the method: as §1

[7] = tested on: velvetleaf (Abutilon theophrasti)
Summary of the method: as §1

[8] = tested on: large crabgrass (Digitaria sanguinalis)
Summary of the method: as §1

[9] = tested on: kochia (Kochia scoparia)
Summary of the method: as §1

[10] = tested on: johnsongrass (Sorghum halepense)
Summary of the method: as §1

[11] = tested on: green foxtail (Setaria viridis)
Summary of the method: as §1

[12] = tested on: soybean (Glycine max)
Summary of the method: as §1

[13] = tested on: lambsquarters (Chenopodium album)
Summary of the method: as §1

[14] = 250 g ai/ha, Preemergence, 0 to 100 scale
[15] = Postemergence, 31 g ai/ha, scale 0 to 100 (0 no effect, 100 complete control)
[16] = Postemergence, 62 g ai/ha, scale 0 (no effect) to 100 (complete control), 13 to 15 days
[17] = Postemergence, 125 g ai/ha, visual rating after 13 to 15 days, scale 0 (no effect) to 100 (complete control)
[18] = Postemergence, 250 g ai/ha, scale 0 to 100
[19] = Preemergence, 31 g ai/ha, scale 0 to 100 (0 no effect, 100 complete control)
[20] = Preemergence, 62 g ai/ha, scale 0 to 100 (0 no effect, 100 complete control)
[21] = Preemergence, 125 g ai/ha, 0 to 100 scale

Cc1ccccc1-n1c(-c2ccccc2)ncc(C(=O)C2=C(O)CCCC2=O)c1=O [Compound 12]
65: Plant response rating, Nutsedge, Yellow [1, 17] | Plant response rating, Bermudagrass [6, 15] | Plant response rating, Crabgrass, Large [8, 15] | Kochia plant response rating [9, 18] | Plant response rating, Soybean [12, 20]
20: Plant response rating, Kochia [9, 15] | Plant response rating, Kochia [9, 16]
100: Plant response rating, Ragweed [4, 14] | Plant response rating, Ragweed [4, 15] | Plant response rating, Ragweed [4, 16] | Plant response rating, Ragweed [4, 17] | Ragweed plant response rating [4, 18] | Ragweed plant response rating [4, 21] | Plant response rating, Goosegrass [5, 14] | Goosegrass plant response rating [5, 18] | Goosegrass plant response rating [5, 21] | Plant response rating, Bermudagrass [6, 14] | Bermudagrass plant response rating [6, 18] | Plant response rating, Bermudagrass [6, 19] | Plant response rating, Bermudagrass [6, 20] | Bermudagrass plant response rating [6, 21] | Plant response rating, Velvetleaf [7, 14] | Velvetleaf plant response rating [7, 18] | Plant response rating, Velvetleaf [7, 20] | Velvetleaf plant response rating [7, 21] | Plant response rating, Crabgrass, Large [8, 14] | Crabgrass, Large plant response rating [8, 21] | Plant response rating, Kochia [9, 14] | Plant response rating, Kochia [9, 20] | Kochia plant response rating [9, 21] | Plant response rating, Soybean [12, 16] | Plant response rating, Soybean [12, 17] | Soybean plant response rating [12, 18] | Plant response rating, Lambsquarters [13, 14] | Plant response rating, Lambsquarters [13, 19] | Plant response rating, Lambsquarters [13, 20] | Lambsquarters plant response rating [13, 21]
98: Plant response rating, Ragweed [4, 20] | Plant response rating, Goosegrass [5, 17] | Plant response rating, Bermudagrass ([6]; Postemergence, 125 g ai/ha, scale 0 to 100 (0 no effect, 100 complete control), 13 to 15 days) | Plant response rating, Velvetleaf [7, 17] | Plant response rating, Johnsongrass [10, 14] | Plant response rating, Soybean [12, 15] | Plant response rating, Lambsquarters [13, 17] | Lambsquarters plant response rating [13, 18]
55: Plant response rating, Nutsedge, Yellow [1, 16] | Plant response rating, Cupgrass, Woolly [3, 15] | Plant response rating, Johnsongrass [10, 15]
80: Nutsedge, Yellow plant response rating [1, 18] | Cupgrass, Woolly plant response rating [3, 18] | Plant response rating, Velvetleaf [7, 15] | Plant response rating, Crabgrass, Large [8, 17] | Plant response rating, Foxtail, Green [11, 14] | Soybean plant response rating [12, 21] | Plant response rating, Lambsquarters [13, 15]
0: Plant response rating, Wheat [2, 14] | Plant response rating, Wheat [2, 15] | Plant response rating, Wheat [2, 16] | Plant response rating, Wheat [2, 17] | Wheat plant response rating [2, 18] | Plant response rating, Wheat [2, 19] | Plant response rating, Wheat [2, 20] | Wheat plant response rating [2, 21] | Plant response rating, Cupgrass, Woolly [3, 19] | Plant response rating, Crabgrass, Large [8, 19] | Plant response rating, Johnsongrass [10, 19] | Plant response rating, Johnsongrass [10, 20] | Plant response rating, Foxtail, Green [11, 19] | Plant response rating, Foxtail, Green [11, 20]
40: Plant response rating, Foxtail, Green [11, 15] | Foxtail, Green plant response rating [11, 21]
15: Plant response rating, Nutsedge, Yellow [1, 15] | Plant response rating, Kochia [9, 19]
95: Plant response rating, Soybean [12, 14]
25: Plant response rating, Nutsedge, Yellow [1, 19]
60: Plant response rating, Nutsedge, Yellow [1, 20] | Plant response rating, Cupgrass, Woolly [3, 16] | Plant response rating, Kochia [9, 17] | Plant response rating, Johnsongrass [10, 16] | Plant response rating, Johnsongrass [10, 17] | Plant response rating, Foxtail, Green [11, 16] | Plant response rating, Soybean [12, 19]
75: Nutsedge, Yellow plant response rating [1, 21] | Cupgrass, Woolly plant response rating [3, 21] | Plant response rating, Crabgrass, Large [8, 16] | Johnsongrass plant response rating [10, 18] | Johnsongrass plant response rating [10, 21]
90: Plant response rating, Nutsedge, Yellow [1, 14] | Plant response rating, Ragweed [4, 19] | Plant response rating, Velvetleaf [7, 19] | Crabgrass, Large plant response rating [8, 18] | Plant response rating, Crabgrass, Large [8, 20]
10: Plant response rating, Cupgrass, Woolly [3, 20]
85: Plant response rating, Cupgrass, Woolly [3, 14] | Plant response rating, Goosegrass [5, 16] | Plant response rating, Goosegrass [5, 19] | Plant response rating, Bermudagrass [6, 16] | Plant response rating, Velvetleaf [7, 16] | Plant response rating, Lambsquarters [13, 16]
70: Plant response rating, Cupgrass, Woolly [3, 17] | Plant response rating, Goosegrass [5, 15] | Plant response rating, Foxtail, Green [11, 17] | Foxtail, Green plant response rating [11, 18]
